Target: coffee bean alpha-galactosidase (Coffea arabica) (UniProt Q42656)
Test: Inhibitory activity measured against alpha-galactosidase of coffee bean by colorimetric assay using the p-nitrophenyl glycoside method

Chain of coffee bean alpha-galactosidase (Coffea arabica) (Q42656 whole entry, looked up): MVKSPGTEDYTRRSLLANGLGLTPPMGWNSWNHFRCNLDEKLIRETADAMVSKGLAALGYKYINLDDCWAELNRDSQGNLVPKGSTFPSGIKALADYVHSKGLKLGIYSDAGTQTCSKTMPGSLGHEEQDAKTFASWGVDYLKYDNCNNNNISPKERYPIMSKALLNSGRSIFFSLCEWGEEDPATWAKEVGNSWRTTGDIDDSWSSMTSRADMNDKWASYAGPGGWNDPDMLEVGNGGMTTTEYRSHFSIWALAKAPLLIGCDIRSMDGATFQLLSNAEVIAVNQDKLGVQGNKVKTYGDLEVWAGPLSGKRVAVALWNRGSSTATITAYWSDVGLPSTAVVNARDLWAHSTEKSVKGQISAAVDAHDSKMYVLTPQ

IC50 [µM] | SMILES
80 | OC[C@H]1N[C@H](CO)[C@H](O)C(O)[C@H]1O (some centres not stated)
6.4 | OCC1NC(CO)[C@@H](O)C(O)C1O (stereo partly drawn) [(R)-2,6-Bis-hydroxymethyl-piperidine-3,4,5-triol]
